Measured values taken from article PMC5108032, “Discovery of a Quinoline-4-carboxamide Derivative with a Novel Mechanism of Action, Multistage Antimalarial Activity, and Potent in Vivo Efficacy” (Journal of Medicinal Chemistry, 2016).
Converted amounts (≈) assume the structure as drawn.

Assay: Kinetic aqueous solubility (laser nephelometry)
Assay type: physicochemical
Settings: MilliQ water with 1.0% DMSO, aqueous with cosolvent or surfactant or cyclodextrin, kinetic from dmso stock
Source text: inhibition at top, C= EC50, D= slope, x= inhibitor concentration and y= % inhibition. […]
reach 100% of inhibition, B was fixed to 100 only when at least 50% of inhibition was reached.
Plasmodium falciparum late stage (IV-V) gametocyte high content imaging assay Plasmodium falciparum NF54-pfs16-LUC-GFP stage IV-V Gametocytes were produced as described previously.5 Compounds were solubilized in DMSO and serially diluted in three concentrations per log standard curves in DM SO. One µl of compound was subsequently diluted in 25µl of water (4% DMSO) and 5µl transferred into the base of 384 well PerkinElmer CellCarrier plates. […]
Post incubation, 5µl of MitoTracker® Red CM -H2Xros (MTR) solution (0.66ug/ml) was added to all wells and the plates incubated for a further 16hours. The assay plates were then imaged and the number of viable gametocytes determined for test compounds plus 0.4%DMSO and 5µM Puromycin. […]
Assay was performed as previously reported.6 Briefly blood containing P. berghei CTRPp-GFP gametocytes was rapidly harvested from infected mice and introduced to test compounds pre-diluted in ookinete medium (to induce gamete formation and support ookinete development) in 96-well plates. […] All assays were performed in triplicate independent experiments and EC50 values calculated in Graphpad Prism. […]

O=C(NCCN1CCCC1)c1cc(NCCCCN2CCOCC2)nc2ccc(Cl)cc12 [Compound 27, 6-Chloro-2-((4-morpholinobutyl)amino)-N-(2-(pyrrolidin-1-yl)ethyl)quinoline-4-carboxamide]
solubility kinetic: 220 µM (≈ 101 µg/mL)
